Earlier results as cited in paper PMC7153166 (Elektrophysiologie, 2018).

Assays:
Assay type in all cases: cell-based
[1] = target: T1, P2X2-Rezeptor (Rattus norvegicus, UniProt P49653); test: two-electrode voltage clamp, Xenopus oocytes; conditions: agonist
T1 sequence (P49653 1-472): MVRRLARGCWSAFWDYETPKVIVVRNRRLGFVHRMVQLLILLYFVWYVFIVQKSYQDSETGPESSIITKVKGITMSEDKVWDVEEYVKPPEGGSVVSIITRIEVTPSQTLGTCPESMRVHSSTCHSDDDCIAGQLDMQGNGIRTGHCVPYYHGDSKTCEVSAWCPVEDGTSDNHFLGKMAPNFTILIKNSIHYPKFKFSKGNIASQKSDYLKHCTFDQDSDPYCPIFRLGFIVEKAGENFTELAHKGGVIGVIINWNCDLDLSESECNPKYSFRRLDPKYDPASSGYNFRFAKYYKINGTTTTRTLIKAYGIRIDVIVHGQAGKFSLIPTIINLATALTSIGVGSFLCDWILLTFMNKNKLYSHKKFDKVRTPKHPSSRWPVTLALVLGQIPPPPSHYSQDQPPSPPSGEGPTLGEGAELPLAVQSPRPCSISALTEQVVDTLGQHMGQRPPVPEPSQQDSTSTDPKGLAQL

[2] = target: T2, P2X1-Rezeptor (Rattus norvegicus, UniProt P47824); test: two-electrode voltage clamp, Xenopus oocytes
T2 sequence (P47824 1-399): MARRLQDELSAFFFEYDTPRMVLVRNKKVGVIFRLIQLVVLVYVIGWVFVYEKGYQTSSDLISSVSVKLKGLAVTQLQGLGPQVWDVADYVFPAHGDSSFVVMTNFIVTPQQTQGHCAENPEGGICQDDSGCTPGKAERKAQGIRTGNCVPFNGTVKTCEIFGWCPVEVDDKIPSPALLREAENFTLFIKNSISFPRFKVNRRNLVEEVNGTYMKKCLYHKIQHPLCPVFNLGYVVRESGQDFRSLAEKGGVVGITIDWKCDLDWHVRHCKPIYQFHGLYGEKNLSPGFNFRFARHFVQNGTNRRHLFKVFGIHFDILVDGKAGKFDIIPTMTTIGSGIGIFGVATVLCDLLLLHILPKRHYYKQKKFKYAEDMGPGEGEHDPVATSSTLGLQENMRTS

[3] = target: 3a-Protein (Severe acute respiratory syndrome-related coronavirus, UniProt P59632)
3a-Protein, sequence (P59632 whole entry, looked up): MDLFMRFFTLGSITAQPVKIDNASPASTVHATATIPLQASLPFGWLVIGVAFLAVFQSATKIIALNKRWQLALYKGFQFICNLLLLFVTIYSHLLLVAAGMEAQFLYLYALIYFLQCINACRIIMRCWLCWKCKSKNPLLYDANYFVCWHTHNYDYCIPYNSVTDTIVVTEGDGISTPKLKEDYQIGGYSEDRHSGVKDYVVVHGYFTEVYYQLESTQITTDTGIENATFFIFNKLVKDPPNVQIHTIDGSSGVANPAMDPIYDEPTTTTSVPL

SMILES	EC50 [1]	EC50 [2]	IC50 [3]
Nc1ncnc2c1ncn2[C@@H]1O[C@H](COP(=O)(O)OP(=O)(O)OP(=O)(O)O)[C@@H](O)[C@H]1O [ATP]	~30 µM	0.6 µM	
Cc1cc(O)c2c(c1)C(=O)c1cc(O)cc(O)c1C2=O [Emodin, 1,3,8-Trihydroxcy-6-methylanthracen-9,10-dion]			20 µM
O=c1c(O[C@@H]2O[C@@H](CO)[C@H](O)[C@H]2O)c(-c2ccc(O)cc2)oc2cc(O)cc(O)c12 [Juglanin]			~2 µM
